The source of these data is patent US20100292179A1, “TARGET” (The University of Durham, priority 2006, published 2010).

Starred links: 1 amine or outer side, 2 acyl side, 3 side chain; linkers in the order of their positions; H or OH if unused. Non-standard residues stand in square brackets, D forms with d. Residues, ends and D or L forms follow the SMILES beside them. X1 = CC[C@@H](C)[C@@H](O[*:1])C(=O)[*:2]; NMeVal(β-OH) = CN[C@H](C(=O)O)C(C)(C)O; NMeF = CN[C@@H](Cc1ccccc1)C(=O)O; aIle = CC[C@@H](C)[C@H](N)C(=O)O; NMeV = CN[C@H](C(=O)O)C(C)C

Experiment [1] deals with YPH499-HIS-GAL-AUR1 complemented with LmIPCS. Briefly: Agar diffusion assay, yeast mutant rescued with LmIPCS. The experiment is classed as cell-based, S. cerevisiae. The procedure: (§1) A. Volumes of 1, 2 and 3 μl of 25 μM Aureobasidin A (AbA), 1 mM myriocin (MYR), 25 μM cycloheximide (CYC) and DMSO as a control (CTL) spotted onto yeast plates prepared as described in Experimental Procedures. B. Volumes of 1, 2 and 3 μl of 100 μM Aureobasidin A spotted onto yeast plates prepared as described in Experimental Procedures.
(§2) YPH499—wild type yeast; ScIPCS—YPH499-HIS-GAL-AUR1 pRS426 ScIPCS; LmIPCS—YPH499-HIS-GAL-AUR1 pRS426 LmIPCS; AGD—yeast sphingolipid bypass mutant, negative control.
(§3) Agar diffusion assay—Wild type YPH499 yeast and the transgenic strain YPH499-HIS-GAL-AUR1 complemented with ScIPCS or LmIPCS were assayed for susceptibility to Aureobasidin A (Takara), myriocin (Sigma) and cycloheximide (Sigma) as previously described (19). Briefly, 2.4×10^7 logarithmically dividing cells were embedded in 15 ml of YPD agararose (2% dextrose, 1% yeast extract, 2% peptone, 0.8% agarose) on […] square Petri dishes (Sarstedt). Inhibitors were applied in DMSO at the concentrations described below and the dishes incubated at 30° C.
(§4) In this study, the diffusion assay system previously described, with the sphingolipid bypass mutant (AGD) as a negative control, was utilized (6,19).
Background: Agar diffusion results depend on both activity and mobility in agar.

Experiment [2] has as its system YPH499-HIS-GAL-AUR1 complemented with ScIPCS. The experiment can be described thus: Agar diffusion assay, yeast mutant rescued with ScIPCS. The experiment is classed as cell-based, S. cerevisiae. Conditions: FIG. 5A; 25 μM Aureobasidin A, 1 mM myriocin, 25 μM cycloheximide spotted. As to the method: as §1, §2, §3, §4
Experiment [3] deals with Wild type YPH499 yeast. Briefly: Agar diffusion assay, wild type yeast. It counts as cell-based, S. cerevisiae. Conditions: FIG. 5A; 25 μM Aureobasidin A, 1 mM myriocin, 25 μM cycloheximide spotted. The procedure:
as §1, §2, §3, §4

In experiment [4] the test system is AGD yeast sphingolipid bypass mutant. The experiment can be described thus: Agar diffusion assay, sphingolipid bypass mutant (negative control). It counts as cell-based, S. cerevisiae. Conditions: 100 μM Aureobasidin A. As to the method:
as §1, §2, §3, §4

For experiment [5], the system named is insect stage Leishmania. The experiment can be described thus: Effect on insect stage Leishmania in culture. The experiment is classed as cell-based. Conditions: 20 μM; data not shown.
The test system of experiment [6] is parasites without an active sphingolipid biosynthetic pathway. Briefly: Effect on Leishmania parasites without an active sphingolipid biosynthetic pathway. The experiment is classed as cell-based. Conditions: 20 μM; data not shown.
Experiment [7] deals with T. cruzi enzyme (TcIPCS). Conditions: even at levels 1000 fold higher than that which inhibit the S. cerevisiae enzyme; crude parasite membrane extracts; cited from earlier work.
Experiment [8] addresses T1, IPC synthase (Saccharomyces cerevisiae, UniProt P36107).
T1 sequence (P36107 1-401): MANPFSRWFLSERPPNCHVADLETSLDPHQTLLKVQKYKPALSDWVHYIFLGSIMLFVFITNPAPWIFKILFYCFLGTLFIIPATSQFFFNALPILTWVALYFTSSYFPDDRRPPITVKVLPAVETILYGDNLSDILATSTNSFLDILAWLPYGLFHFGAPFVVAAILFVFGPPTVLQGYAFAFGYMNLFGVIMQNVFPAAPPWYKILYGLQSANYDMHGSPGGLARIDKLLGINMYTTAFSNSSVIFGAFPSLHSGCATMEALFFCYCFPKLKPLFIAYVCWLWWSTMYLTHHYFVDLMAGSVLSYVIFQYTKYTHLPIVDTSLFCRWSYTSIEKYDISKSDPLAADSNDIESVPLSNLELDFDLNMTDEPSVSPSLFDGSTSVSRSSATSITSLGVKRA
T1 sequence (Q06346 1-221 partner): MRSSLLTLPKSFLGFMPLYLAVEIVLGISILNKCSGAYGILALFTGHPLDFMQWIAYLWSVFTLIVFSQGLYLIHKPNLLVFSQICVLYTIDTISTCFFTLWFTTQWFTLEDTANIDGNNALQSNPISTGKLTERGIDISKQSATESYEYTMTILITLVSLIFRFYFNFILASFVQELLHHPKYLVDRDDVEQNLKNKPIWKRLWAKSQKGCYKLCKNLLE
Conditions: with respect to ceramide; cited from earlier work.

The test system of experiment [9] is samples from fungal Aspergillus spp. The following applies: lack of susceptibility attributed to efflux; cited from earlier work.
The mark [10] stands for this setting: FIG. 5A, 1, 2 and 3 μl of 25 μM Aureobasidin A, 1 mM myriocin, 25 μM cycloheximide spotted, 30° C.

On to `CCCCCCC(=O)CCCCCC/C=C/C[C@@H](O)[C@H](O)[C@@](N)(CO)C(=O)O` [myriocin], for which the “sensitivity compared with wild-type or mutant rescued with ScIPCS” value in experiment [1] (FIG. 5A, 1 mM myriocin) is “increased sensitivity”. In addition, the “susceptibility in agar diffusion assay” value in [1] (setting [10]), in experiment [2] and in [3] was “sensitive” in each case.
With `CC[C@@H](C)[C@@H]1NC(=O)[C@@H]2CCCN2C(=O)[C@H](Cc2ccccc2)N(C)C(=O)[C@H](Cc2ccccc2)NC(=O)[C@H](C(C)C)N(C)C(=O)[C@@H]([C@H](C)CC)OC(=O)[C@H](C(C)(C)O)N(C)C(=O)[C@H](CC(C)C)NC(=O)[C@H](C(C)C)N(C)C1=O` [Aureobasidin A] (cyclo(F[NMeF]P[aIle][NMeV]L[NMeVal(β-OH)][X1][NMeV])), the “susceptibility in agar diffusion assay” value is “resistant” in [1] (setting [10]); “sensitivity of LmIPCS to the drug was evident” in experiment [1] (FIG. 5B, 100 μM Aureobasidin A, 1, 2 and 3 μl spotted); “sensitive” in experiment [2]; “sensitive” in experiment [3]. In [4], the “inhibitory effect on growth” value is “lack of an inhibitory effect”. In experiment [5], the “effect against insect stage Leishmania in culture” value is on record as “exhibited an effect”. Besides, the “specificity of the inhibitor in Leishmania culture” value in experiment [5] was “non-specific”. Moreover, in [6], the “activity against parasites in which LmIPCS is redundant, relative to insect stage Leishmania” value is “equivalent activity”. Moreover, in experiment [7], the “T. cruzi enzyme activity” value is listed as “unaffected”. The mode of inhibition entry in experiment [8] is recorded as “non-competitive inhibitor”. The “susceptibility of Aspergillus spp. samples” value in [9] is “only susceptible to Aureobasidin A in the presence of mammalian multi-drug resistance modulators”.
Regarding `C=C1/C=C(\C)[C@H](CC)CC(=O)[C@H](C)C(=O)[C@@](O)(CO)C/C(OC)=C/[C@@H](C)C1` [rustmicin], the “T. cruzi enzyme activity” value in experiment [7] was “unaffected”.
As to `C[C@@H]1C[C@@H]([C@H](O)CC2CC(=O)NC(=O)C2)C(=O)[C@@H](C)C1` [cycloheximide], the “susceptibility in agar diffusion assay” value in experiment [1] (setting [10]), in experiment [2] and in experiment [3] was “sensitive” each time.
